What was measured:
[1] = target: T1, TDO (A172 human glioblastoma cells) (Homo sapiens, UniProt P48775); test: A172 Kynurenine cell based assay; conditions: 500 μM L-tryptophan, 48 hours, kynurenine by Erhlich's reagent
T1 construct: This assay utilised cancer cells which expressed either TDO or IDO; endogenous in cells; host or cells: A172 human glioblastoma cells
Experimental: (§1) Exemplary compounds of the invention were prepared, and tested to determine their effect as TDO and/or IDO inhibitors. Two different assays were employed: 1. a cell-based assay for detecting the effect of test compounds on kynurenine production in two different cancer cell types. This assay utilised cancer cells which expressed either TDO or IDO and as such was used as a means of testing compound activity at these two enzymes in a cell-based context. 2. a TDO and IDO biochemical coupled assay which utilised recombinantly produced and purified TDO and IDO enzymes in combination with the enzyme formamidase. This coupled enzyme system allowed conversion of N-formylkynurenine produced by TDO or IDO activity to kynurenine which was then quantified by fluorescence following addition of Erhlich's Reagent The protocols for these are set out below.
A172 (human glioblastoma) and SKOV3 (human ovarian adenocarcinoma) cells were seeded in a 96 well plate at 30,000 or 40,000 cells per well respectively in phenol red-free RPMI supplemented with 10% FCS, 2 mM L-glutamine and 500 μM L-tryptophan. IDO expression was induced in the SKOV3 cells by the addition of 500 ng/ml IFN-γ. Cells were incubated at 37° C. with or without the addition of test compound. After 48 hours, the cells were removed by centrifugation and Erhlich's reagent was added to the supernatant. The Erhlich's reagent was incubated for 5 minutes before the absorbance was read at 490 nm.

[2] = target: T2, IDO (SKOV3 human ovarian adenocarcinoma cells, IFN-γ induced) (Homo sapiens, UniProt P14902); test: SKOV3 Kynurenine cell based assay; conditions: IDO induced by 500 ng/ml IFN-γ, 500 μM L-tryptophan, 48 hours
T2 construct: IDO expression was induced in the SKOV3 cells by the addition of 500 ng/ml IFN-γ; endogenous in cells; host or cells: SKOV3 human ovarian adenocarcinoma cells, induced with IFN-γ
T2 sequence (P14902 whole entry): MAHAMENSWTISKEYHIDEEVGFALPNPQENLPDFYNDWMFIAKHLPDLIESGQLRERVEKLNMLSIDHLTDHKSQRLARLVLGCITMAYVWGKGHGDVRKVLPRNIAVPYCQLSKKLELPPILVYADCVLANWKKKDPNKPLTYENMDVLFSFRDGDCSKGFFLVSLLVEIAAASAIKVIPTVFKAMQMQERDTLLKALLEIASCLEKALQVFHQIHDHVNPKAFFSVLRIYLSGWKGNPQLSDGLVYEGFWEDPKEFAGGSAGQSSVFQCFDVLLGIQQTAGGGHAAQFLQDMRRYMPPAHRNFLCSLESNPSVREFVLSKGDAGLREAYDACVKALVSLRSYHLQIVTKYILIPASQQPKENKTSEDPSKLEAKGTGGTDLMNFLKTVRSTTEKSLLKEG
Experimental: as §1
A172 (human glioblastoma) and SKOV3 (human ovarian adenocarcinoma) cells were seeded in a 96 well plate at 30,000 or 40,000 cells per well respectively in phenol red-free RPMI supplemented with 10% FCS, 2 mM L-glutamine and 500 μM L-tryptophan. IDO expression was induced in the SKOV3 cells by the addition of 500 ng/ml IFN-γ. Cells were incubated at 37° C. with or without the addition of test compound. After 48 hours, the cells were removed by centrifugation and Erhlich's reagent was added to the supernatant.

[3] = target: Recombinant human IDO (Homo sapiens, UniProt P14902); test: hIDO biochemical coupled assay; conditions: 45 μM L-tryptophan, coupled with kynurenine formamidase
Sequence of Recombinant human IDO (P14902 whole entry): as above
Experimental: as §1
Recombinant human IDO or TDO was incubated in 50 mM KPO4 (pH 7.0), 0.5 mM EGTA, 0.5 mM EDTA, 0.05% Triton™ X100, 20 mM ascorbate, 10 μM methylene blue, 500 U/ml catalase, 50 μg/ml KynB (kynurenine formamidase).

T1 sequence (P48775 whole entry): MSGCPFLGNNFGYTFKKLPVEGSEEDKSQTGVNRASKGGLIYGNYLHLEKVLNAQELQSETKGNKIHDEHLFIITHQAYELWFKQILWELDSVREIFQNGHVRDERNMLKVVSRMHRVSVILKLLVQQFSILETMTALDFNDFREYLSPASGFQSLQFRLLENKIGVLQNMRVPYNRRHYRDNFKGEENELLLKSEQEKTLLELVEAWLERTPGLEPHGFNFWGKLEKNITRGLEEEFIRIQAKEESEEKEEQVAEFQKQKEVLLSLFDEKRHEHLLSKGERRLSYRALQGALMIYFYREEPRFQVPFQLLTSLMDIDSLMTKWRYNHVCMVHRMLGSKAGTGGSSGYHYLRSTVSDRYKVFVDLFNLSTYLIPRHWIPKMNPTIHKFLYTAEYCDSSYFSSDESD

CC(=O)N1CCN(c2c[nH]c3ccccc23)CC1 [Compound 107]
A172 Kynurenine cell based assay pIC50 [1]: + (+ = pIC50 4.00-4.99)
SKOV3 Kynurenine cell based assay pIC50 [2]: +− (+− = pIC50 <4.00)
hIDO biocehmical assay pIC50 [3]: +− (+− = pIC50 <4.00)

Cn1cccc1C(=O)N1CCC(c2c[nH]c3cc(F)ccc23)CC1 [Compound 278]
A172 Kynurenine cell based assay pIC50 [1]: + (+ = pIC50 4.00-4.99)
SKOV3 Kynurenine cell based assay pIC50 [2]: ++ (++ = pIC50 5.00-5.99)
hIDO biocehmical assay pIC50 [3]: + (+ = pIC50 4.00-4.99)

CC(=O)N1CCCC(c2c[nH]c3cc(F)ccc23)CC1 (stereo not drawn) [Compound 181]
A172 Kynurenine cell based assay pIC50 [1]: ++ (++ = pIC50 5.00-5.99)
SKOV3 Kynurenine cell based assay pIC50 [2]: +− (+− = pIC50 <4.00)
hIDO biocehmical assay pIC50 [3]: +− (+− = pIC50 <4.00)

Cc1[nH]c2ccccc2c1C1CCN(S(C)(=O)=O)CC1 [Compound 161]
A172 Kynurenine cell based assay pIC50 [1]: +− (+− = pIC50 <4.00)
SKOV3 Kynurenine cell based assay pIC50 [2]: + (+ = pIC50 4.00-4.99)
hIDO biocehmical assay pIC50 [3]: +− (+− = pIC50 <4.00)

Cc1noc(N2CCC(c3c[nH]c4cc(F)ccc34)CC2)n1 [Compound 183]
A172 Kynurenine cell based assay pIC50 [1]: ++ (++ = pIC50 5.00-5.99)
SKOV3 Kynurenine cell based assay pIC50 [2]: + (+ = pIC50 4.00-4.99)
hIDO biocehmical assay pIC50 [3]: +− (+− = pIC50 <4.00)

CCc1cc(Br)ccc1S(=O)(=O)N1CCC(c2c[nH]c3ccc(C)cc23)CC1 [Compound 50]
A172 Kynurenine cell based assay pIC50 [1]: + (+ = pIC50 4.00-4.99)
SKOV3 Kynurenine cell based assay pIC50 [2]: + (+ = pIC50 4.00-4.99)
hIDO biocehmical assay pIC50 [3]: +− (+− = pIC50 <4.00)

CC(=O)N1CC=C(c2c[nH]c3ccncc23)CC1 [Compound 172]
A172 Kynurenine cell based assay pIC50 [1]: + (+ = pIC50 4.00-4.99)
SKOV3 Kynurenine cell based assay pIC50 [2]: + (+ = pIC50 4.00-4.99)
hIDO biocehmical assay pIC50 [3]: +− (+− = pIC50 <4.00)

CS(=O)(=O)N1CC=C(c2c[nH]c3ccncc23)CC1 [Compound 170]
A172 Kynurenine cell based assay pIC50 [1]: ++ (++ = pIC50 5.00-5.99)
SKOV3 Kynurenine cell based assay pIC50 [2]: + (+ = pIC50 4.00-4.99)
hIDO biocehmical assay pIC50 [3]: +− (+− = pIC50 <4.00)

COc1ccc(Cl)cc1S(=O)(=O)N1CCC(c2c[nH]c3c(C)cccc23)CC1 [Compound 45]
A172 Kynurenine cell based assay pIC50 [1]: + (+ = pIC50 4.00-4.99)
SKOV3 Kynurenine cell based assay pIC50 [2]: + (+ = pIC50 4.00-4.99)
hIDO biocehmical assay pIC50 [3]: +− (+− = pIC50 <4.00)

Cc1cc(S(=O)(=O)N2CCC(c3c[nH]c4ccc(F)cc34)CC2)c(Cl)cc1Cl [Compound 39]
A172 Kynurenine cell based assay pIC50 [1]: + (+ = pIC50 4.00-4.99)
SKOV3 Kynurenine cell based assay pIC50 [2]: + (+ = pIC50 4.00-4.99)
hIDO biocehmical assay pIC50 [3]: +− (+− = pIC50 <4.00)

O=S(=O)(c1ccccc1OC(F)(F)F)N1CCC(c2c[nH]c3ccc(F)cc23)CC1 [Compound 51]
A172 Kynurenine cell based assay pIC50 [1]: + (+ = pIC50 4.00-4.99)
SKOV3 Kynurenine cell based assay pIC50 [2]: + (+ = pIC50 4.00-4.99)
hIDO biocehmical assay pIC50 [3]: +− (+− = pIC50 <4.00)

CS(=O)(=O)N1CCCC(c2c[nH]c3cc(F)ccc23)CC1 (stereo not drawn) [Compound 182]
A172 Kynurenine cell based assay pIC50 [1]: ++ (++ = pIC50 5.00-5.99)
SKOV3 Kynurenine cell based assay pIC50 [2]: + (+ = pIC50 4.00-4.99)
hIDO biocehmical assay pIC50 [3]: +− (+− = pIC50 <4.00)

Cc1nc(N2CCC(c3c[nH]c4cc(F)ccc34)CC2)no1 [Compound 184]
A172 Kynurenine cell based assay pIC50 [1]: ++ (++ = pIC50 5.00-5.99)
SKOV3 Kynurenine cell based assay pIC50 [2]: + (+ = pIC50 4.00-4.99)
hIDO biocehmical assay pIC50 [3]: +− (+− = pIC50 <4.00)

Cc1cccc2c(C3CCN(S(=O)(=O)c4ccc(C(C)(C)C)cc4)CC3)c[nH]c12 [Compound 40]
A172 Kynurenine cell based assay pIC50 [1]: + (+ = pIC50 4.00-4.99)
SKOV3 Kynurenine cell based assay pIC50 [2]: +− (+− = pIC50 <4.00)
hIDO biocehmical assay pIC50 [3]: +− (+− = pIC50 <4.00)

Cc1cccc2c(C3CCN(S(=O)(=O)c4ccccc4S(C)(=O)=O)CC3)c[nH]c12 [Compound 49]
A172 Kynurenine cell based assay pIC50 [1]: ++ (++ = pIC50 5.00-5.99)
SKOV3 Kynurenine cell based assay pIC50 [2]: + (+ = pIC50 4.00-4.99)
hIDO biocehmical assay pIC50 [3]: +− (+− = pIC50 <4.00)

CCCc1ccc(S(=O)(=O)N2CCC(c3c[nH]c4c(C)cccc34)CC2)cc1 [Compound 48]
A172 Kynurenine cell based assay pIC50 [1]: + (+ = pIC50 4.00-4.99)
SKOV3 Kynurenine cell based assay pIC50 [2]: + (+ = pIC50 4.00-4.99)
hIDO biocehmical assay pIC50 [3]: +− (+− = pIC50 <4.00)

Cc1[nH]c2ccccc2c1C1=CCN(S(C)(=O)=O)CC1 [Compound 160]
A172 Kynurenine cell based assay pIC50 [1]: +− (+− = pIC50 <4.00)
SKOV3 Kynurenine cell based assay pIC50 [2]: + (+ = pIC50 4.00-4.99)
hIDO biocehmical assay pIC50 [3]: +− (+− = pIC50 <4.00)

Fc1ccc2c(C3CCN(c4ncccn4)CC3)c[nH]c2c1 [Compound 180]
A172 Kynurenine cell based assay pIC50 [1]: + (+ = pIC50 4.00-4.99)
SKOV3 Kynurenine cell based assay pIC50 [2]: ++ (++ = pIC50 5.00-5.99)
hIDO biocehmical assay pIC50 [3]: +− (+− = pIC50 <4.00)

O=S(=O)(Cc1ccccc1)N1CCC(c2c[nH]c3cc(F)ccc23)CC1 [Compound 293]
A172 Kynurenine cell based assay pIC50 [1]: ++ (++ = pIC50 5.00-5.99)
SKOV3 Kynurenine cell based assay pIC50 [2]: + (+ = pIC50 4.00-4.99)

CC(=O)N1CC=C(c2c[nH]c3c(F)cc(F)cc23)CC1 [Compound 231]
A172 Kynurenine cell based assay pIC50 [1]: + (+ = pIC50 4.00-4.99)
SKOV3 Kynurenine cell based assay pIC50 [2]: + (+ = pIC50 4.00-4.99)

CCCC(=O)N1CCC(c2c[nH]c3cc(F)ccc23)CC1 [Compound 270]
A172 Kynurenine cell based assay pIC50 [1]: ++ (++ = pIC50 5.00-5.99)
SKOV3 Kynurenine cell based assay pIC50 [2]: + (+ = pIC50 4.00-4.99)

CC(=O)N1CCC(c2c[nH]c3ccc(C#N)cc23)CC1 [Compound 233]
A172 Kynurenine cell based assay pIC50 [1]: + (+ = pIC50 4.00-4.99)
SKOV3 Kynurenine cell based assay pIC50 [2]: + (+ = pIC50 4.00-4.99)

CN1CC2CN(c3c[nH]c4ccccc34)CCN2C1=O (stereo not drawn) [Compound 192]
A172 Kynurenine cell based assay pIC50 [1]: + (+ = pIC50 4.00-4.99)
SKOV3 Kynurenine cell based assay pIC50 [2]: +− (+− = pIC50 <4.00)

CC(=O)N1CC=C(c2c[nH]c3ccc(C#N)cc23)CC1 [Compound 225]
A172 Kynurenine cell based assay pIC50 [1]: + (+ = pIC50 4.00-4.99)
SKOV3 Kynurenine cell based assay pIC50 [2]: + (+ = pIC50 4.00-4.99)

CC(C)S(=O)(=O)N1CCC(c2c[nH]c3cc(F)ccc23)CC1 [Compound 289]
A172 Kynurenine cell based assay pIC50 [1]: ++ (++ = pIC50 5.00-5.99)
SKOV3 Kynurenine cell based assay pIC50 [2]: + (+ = pIC50 4.00-4.99)

CC(=O)N1CCC(c2c[nH]c3ccc(C(F)(F)F)cc23)CC1 [Compound 241]
A172 Kynurenine cell based assay pIC50 [1]: + (+ = pIC50 4.00-4.99)
SKOV3 Kynurenine cell based assay pIC50 [2]: + (+ = pIC50 4.00-4.99)

Fc1ccc2c(C3CCN(c4ccncc4)CC3)c[nH]c2c1 [Compound 301]
A172 Kynurenine cell based assay pIC50 [1]: + (+ = pIC50 4.00-4.99)
SKOV3 Kynurenine cell based assay pIC50 [2]: + (+ = pIC50 4.00-4.99)

CS(=O)(=O)N1CCC(c2c[nH]c3ccc(C(F)(F)F)cc23)CC1 [Compound 240]
A172 Kynurenine cell based assay pIC50 [1]: + (+ = pIC50 4.00-4.99)
SKOV3 Kynurenine cell based assay pIC50 [2]: ++ (++ = pIC50 5.00-5.99)

O=C1CCC2CN(c3c[nH]c4ccccc34)CCN12 (stereo not drawn) [Compound 190]
A172 Kynurenine cell based assay pIC50 [1]: ++ (++ = pIC50 5.00-5.99)
SKOV3 Kynurenine cell based assay pIC50 [2]: +− (+− = pIC50 <4.00)

CC(=O)N1CC=C(c2c[nH]c3cc(Cl)c(F)cc23)CC1 [Compound 228]
A172 Kynurenine cell based assay pIC50 [1]: ++ (++ = pIC50 5.00-5.99)
SKOV3 Kynurenine cell based assay pIC50 [2]: + (+ = pIC50 4.00-4.99)
